Experimental data taken from patent publication US20120329761A1, “USE OF TIGECYCLINE FOR TREATMENT OF CANCER” (UNIVERSITY HEALTH NETWORK, priority 2010, published 2012).

Tests used:
[1] = tested on: TEX cells; experiment: Mitochondrial membrane potential, JC-1 dye; type: cell-based, human; details: 5 μM, times preceding onset of cell death
Procedure: (§1) FIG. 4. Tigecycline decreases mitochondrial Cox-1 protein levels in TEX cells. (A) Cells from TEX, OCI-AML2 and two primary AML patients were treated with increasing concentrations (2.5 μM and 5 μM) of tigecycline for 36 and 48 hours of tigecycline. Total proteins were extracted and analyzed by western blotting for Cox-1, Cox-2, Cox-4, grp78, XIAP, actin and tubulin. (B) TEX and AML patient cells were treated with increasing concentrations (2.5 μM and 5 μM) of tigecycline. Cox-1, Cox-2, and Cox-4 mRNA expression relative 18S was determined by quantitative RT-PCR. Data is shown as mean±SD. (C) TEX cells were treated with increasing concentrations of tigecycline and chloramphenicol (CAP) for 72 hours. Complex I, II and IV enzyme activity relative to citrate synthase activity was determined as described in materials and methods. (D) Cells from TEX, primary AML patients, and normal donors were treated with increasing concentrations of tigecycline. Mitochondrial membrane potential (Δψ) was determined by staining cells with JC-1 dye, and flow cytometry analysis (Red/Green ratio). Reactive oxygen species generation (ROS) was determined by staining with h2-DCFDA and Dihydroethidium (DHE).
(§2) To measure mitochondrial membrane potential, cells were treated with tigecycline similarly as described above and then washed twice with PBS and incubated with 5 μM of 5,5′,6,6′-tetrachloro-1,1′,3,3′-tetraethyl benzimidazolylcarbocyanine iodide (JC-1, Sigma-Aldrich) for 20 minutes at 37° C. Each sample was then washed twice with 1 mL PBS and resuspended in 500 μL PBS prior to being read on a BD FACSCalibur. Samples were excited at 488 nm and emission was collected at 526 nm (green) and 595 nm (red). Analysis was conducted using FlowJo software (TreeStar Inc). […]
(§3) During oxidative phosphorylation, the intermediate between oxygen reduction and ATP synthesis is the electrochemical proton gradient, comprised mostly of the mitochondrial membrane potential. […] The effect of tigecycline treatment on the mitochondrial membrane potential as determined by the carbocyanine dye JC-1 was examined. […]

[2] = tested on: normal hematopoietic cells; experiment: Mitochondrial membrane potential, JC-1 dye; type: cell-based, human; details: normal hematopoietic cells from two G-CSF mobilized normal donors
Procedure: as §1, §2, §3

[3] = tested on: primary AML samples; experiment: Mitochondrial membrane potential, JC-1 dye; type: cell-based, human; details: three primary AML samples, 5 μM, times preceding onset of cell death
Procedure: as §1, §2, §3

[4] = tested on: primary AML patient samples; experiment: Cell death by Annexin V staining, 48 hours; type: cell-based, human
Procedure: (§4) FIG. 2. Tigecycline induces cell death and inhibits clonogenic growth in primary AML cells preferential over normal hematopoietic cells. Mononuclear cells from peripheral blood of leukemia patients (blast count >80%) and normal G-CSF expanded donors was treated with increasing concentrations of tigecycline for 48 hours. Cell viability was measured by Annexin-PI flow cytometry staining. Cell viability is expressed as a mean percentage plus or minus SD (n=3) relative to DMSO-treated cells. Mononuclear cells from primary AML patient samples (A, B) and normal peripheral blood cells (C) were plated in methylcelluose with 5 μM of Tigecycline. (D) Colony forming units were counted at 7 days (AML) and 14 days (Normal) post plating. Percent colony formation is represented compared to DMSO-treated plated cells.
(§5) Primary human acute myeloid leukemia (AML) samples were isolated from fresh peripheral blood samples of consenting patients with AML. Similarly, primary normal hematopoietic cells were obtained from healthy consenting volunteers donating peripheral blood […] (PBSC) for stem cell transplantation. The mononuclear cells were isolated from the samples by Ficoll density centrifugation. Primary cells were cultured at 37° C. in IMDM supplemented with 20% FCS, 1 mM of L-glutamine and appropriate antibiotics. […]
(§6) Cell growth and viability was assessed by the MTS assay (Promega, Madison, Wis.) according to the manufacturer's instructions. Apoptosis and cell death was measured by Annexin V-fluoroscein isothiocyanate (FITC; Biovision Research Products, Mountain View, Calif.), propidium iodide staining and flow cytometry according to the manufacturer's instructions and as previously described^30.
(§7) Given the cytotoxicity of tigecycline towards leukemia cell lines, the ability of tigecycline to induce cell death in primary acute myeloid leukemia (AML) patient samples and normal hematopoietic cells was compared and evaluated. […] After incubation, cell viability was measured by Annexin V staining.

[5] = tested on: primary normal hematopoietic cells (PBSC); experiment: Cell death by Annexin V staining, 48 hours; type: cell-based, human; details: normal PBSC from G-CSF mobilized donors, n=5, 48 hours
Procedure: as §4, §5, §6, §7

[6] = cited from earlier work
[7] = PK study in mice, single dose i.p.; type: in vivo; details: mouse, serum, ip, single dose 50 mg/kg i.p.
[8] = rat, in vivo, 30 mg/kg/day; cited from earlier work

Q: Which results are given for `CN(C)c1cc(NC(=O)CNC(C)(C)C)c(O)c2c1C[C@H]1C[C@H]3[C@H](N(C)C)C(O)=C(C(N)=O)C(=O)[C@@]3(O)C(O)=C1C2=O` [tigecycline]?
A: mitochondrial membrane potential (JC-1 Red/Green ratio) [1]: decreased mitochondrial membrane potential; loss of mitochondrial membrane potential [2]: not seen; mitochondrial membrane potential (JC-1 Red/Green ratio) [3]: decreased mitochondrial membrane potential; LD50 ([4]; more resistant group of patients, n=7, 48 hours): > 9 µM; LD50 ([4]; sensitive subset of leukemia patients, n=13, 48 hours): 5 µM; LD50 [5]: > 10 µM; toxicity ([6]; 50 mg intravenously every 12 hours): without significant toxicity; half life in humans ([6]; humans): 27 h; tolerability ([6]; intravenous doses of 300 mg): well tolerated save for mild nausea; Tmax [7]: ~30 min; half-life [7]: ~270 min; toxicology findings [8]: reversible anemia, thrombocytopenia, and leucopenia with a hypocellular bone marrow
